From patent US20240299424A1, “USE OF PHYTOCANNABINOIDS FOR TREATING ENDOMETRIAL CANCER AND ENDOMETRIOSIS” (INTEGRATIVE THERAPY DISCOVERY LAB S.R.L., priority 2021, published 2024)

Tests used:
[1] = system: Ishikawa cells; assay: MTT cell viability assay, Ishikawa type I endometrial cancer cell line; assay type: cell-based, human; conditions: 72 hours; for cytotoxicity (cell viability, % vs vehicle) in combination: in double with cannabidiol (10, 15 and 20 microM CBD), FIG. 3-4; for cytotoxicity (cell viability, % vs vehicle): phytocannabinoid alone, FIG. 1; for cytotoxicity (cell viability, % vs vehicle) in combination with chemotherapeutic drugs: with paclitaxel (PAC), doxorubicin (DOX) and cisplatin (CIS), FIG. 7-10
Experimental: (§1) Ishikawa is a well differentiated type I cell line, was purchased from Sigma Aldrich (Milan, Italy). Ishikawa cells were grown in EMEM medium (Lonza, Milan, Italy), supplemented with 5% fetal bovine serum (FBS), 2 mM/L of glutamine, 100 IU/ml of penicillin, and […] of streptomycin. Primary EC cells PCEM004A, poorly differentiated mixed type I/II cell line, was grown in RPMI1640, supplemented with 20% FBS, 2 mM/L of glutamine, 100 IU/ml of penicillin, and […] of streptomycin. Immortalized human endometriotic cell line (12Z) was generated by infecting cells, obtained from a person undergoing laparoscopy, with SV40 virus. This cell line was purchased by Applied Biological Materials Inc and was maintained in Prigrow III medium supplemented with 20% no-heat inactivated FBS, 100 IU/ml of penicillin and […] of streptomycin. Human pancreatic ductal adenocarcinoma PANC-1 cell line was purchased by Sigma Aldrich (Milan, Italy) and cultured in DMEM high glucose medium (EuroClone, Milan, Italy) supplemented with 10% FBS, 2 mM L-glutamine, 100 IU/mL penicillin, […] streptomycin and 1 mM sodium pyruvate. The human glioblastoma U251 cell line (grade IV), obtained from European Collection of Cell Cultures (ECACC, Salisbury, UK), was maintained in EMEM supplemented with 10% FBS, 2 mmol/L L-glutamine, 100 IU/mL penicillin and 100 μg streptomicin. Media were changed every 48 hours until cells were 90% confluent. All cell lines were maintained at 37 C with 5% CO2 and 95% humidity.
(§2) EC cell lines, PANC-1, U251, and 12Z (3×10^4 cells/ml) were plated in 96-well plates, in a final volume of 100 microl/well. After 24 hours, treatments or vehicles were added for 72 hours. At least six replicates were used for each treatment. At the indicated time point, cell viability was assessed by adding 0.8 mg/ml of 3-[4,5-dimethylthiazol-2-yl]-2,5 diphenyl tetrazolium bromide (MTT, Sigma-Aldrich) to the media. After 3 hours, the plates were centrifuged, the supernatant was removed, and the pellet was solubilized with 100 microl/well of DMSO. The absorbance of the samples against a background control (medium alone) was measured at 570 nm using an ELISA reader microliter plate (BioTek Instruments, Winooski, VT, United States). IC50 was calculated by PRISM 5.0a software, for single phytocannabinoids.

[2] = system: PCEM004A cells; assay: MTT cell viability assay, primary mixed type PCEM004A endometrial cancer cell line; assay type: cell-based, human; conditions: 72 hours; for cytotoxicity (cell viability, % vs vehicle): phytocannabinoid alone, FIG. 5; for cytotoxicity (cell viability, % vs vehicle) in combination with chemotherapeutic drugs: with paclitaxel (PAC), doxorubicin (DOX) and cisplatin (CIS), FIG. 7-10
Experimental: as §1, §2

[3] = system: PANC-1 cells; assay: MTT cell viability assay, PANC-1 pancreatic ductal adenocarcinoma cell line; assay type: cell-based, human; conditions: PANC-1, 72 hours post-treatment, FIG. 11
Experimental: as §1, §2

[4] = system: U251 cells; assay: MTT cell viability assay, U251 glioblastoma cell line; assay type: cell-based, human; conditions: U251, 72 hours post-treatment, FIG. 13
Experimental: as §1, §2

[5] = system: 12Z endometriotic cell line; assay: MTT cell viability assay, 12Z endometriotic cell line; assay type: cell-based, human; conditions: single administration, 72 hours post-treatment, FIG. 15-20
Experimental: as §1, §2

[6] = system: 12Z endometriotic cell line; assay: Transwell invasion assay, 12Z endometriotic cells; assay type: cell-based, human; conditions: non-cytotoxic dose, 24 hours, Transwell/Matrigel, major effect order THC>CBG>CBD>CBDV>CBN>CBC, FIG. 22-30
Experimental: as §1
12Z cell invasion was evaluated by Transwell invasion assay using Transwell chambers (BD Biosciences, Franklin Lakes, NJ, USA) characterized by the upper face of the polycarbonate membrane covered with 1 mg/ml Matrigel. A total of 750 μl cell culture medium supplemented with 10% FBS was added in the lower chamber. Serum free culture medium ([…]) containing 2.5×10^4 12Z endometriotic cells was plated into the upper chamber with the appropriate treatment. After 24 hours of incubation, the cells remaining in the upper chamber were removed by cotton swabs. The cells on the lower and inner surface of the membrane were fixed in cold methanol, stained with hoechst and observed using a fluorescence microscope (BX51 fluorescence microscope, Olympus, Milan, Italy). A total of ten fields at ×10 magnification were selected at random to measure the average cell coverage using ImageJ software version 1.45s (National Institutes of Health, Bethesda, MD, USA). The experiments were performed in triplicate at least three times independently.

[7] = system: IL-6; assay: RT/PCR TaqMan array, IL-6 gene expression in 12Z cells; assay type: cell-based, human; conditions: 48 hours, CBG, CBC, CBN 30 microM, CBD, CBDV 10 microM, THC 40 microM
Experimental: (§3) Total RNA from untreated or single treated 12Z cell line with CBD, CBG, CBC, CBN, CBDV and THC was extracted using Rneasy Mini kit (Qiagen, Milan, Italy). One microgram of total RNA from each sample was subjected to reverse transcription in a total volume of 20 μL using the High-Capacity cDNA Archive Kit (Applied Biosystem, Foster City, PA, USA) according to the instructions. cDNAs were analyzed by qRT-PCR performed using an IQ5 Multicolor Real time PCR Detection system. Quantitative real-time gene expression was performed with the TaqMan® Array Plate, containing 15 associated cytokine genes and beta-actin as endogenous control gene, was purchased (Thermo Fisher, Grand Island, NY, USA) and used to evaluate the treatments in modulating 12Z-related genes. Measurement of housekeeping gene (beta-Actin) on the samples was used to normalize mRNA content. The gene expression levels of treated cell lines were expressed as normalized fold compared with vehicle-treated cells.

[8] = system: endometrial cancer cell lines; assay: MTT cell viability, endometrial cancer cell lines tested (Ishikawa and PCEM004A, stated jointly); assay type: cell-based, human; conditions: for dose dependence of effect on cell viability: individual phytocannabinoids
Experimental: as §1, §2

[9] = system: IL-33; assay: RT/PCR TaqMan array, IL-33 gene expression in 12Z cells; assay type: cell-based, human; conditions: 48 hours, CBG, CBC, CBN 30 microM, CBD, CBDV 10 microM, THC 40 microM
Experimental: as §3

[10] = system: IL-1beta; assay: RT/PCR TaqMan array, IL-1beta gene expression in 12Z cells; assay type: cell-based, human; conditions: 48 hours, CBG, CBC, CBN 30 microM, CBD, CBDV 10 microM, THC 40 microM
Experimental: as §3

[11] = system: CXCL8; assay: RT/PCR TaqMan array, CXCL8 gene expression in 12Z cells; assay type: cell-based, human; conditions: 48 hours, CBG, CBC, CBN 30 microM, CBD, CBDV 10 microM, THC 40 microM
Experimental: as §3

[12] = system: STAT-3; assay: RT/PCR TaqMan array, STAT-3 gene expression in 12Z cells; assay type: cell-based, human; conditions: 48 hours, CBG, CBC, CBN 30 microM, CBD, CBDV 10 microM, THC 40 microM
Experimental: as §3

[13] = system: type I cells and mixed type endometrial cancer cell lines; conditions: cited from earlier work

Row | SMILES | cytotoxicity (cell viability, % vs vehicle) in combination [1] | cytotoxicity (cell viability, % vs vehicle) [1] | cytotoxicity (cell viability, % vs vehicle) in combination with chemotherapeutic drugs [1] | cytotoxicity (cell viability, % vs vehicle) [2] | cytotoxicity (cell viability, % vs vehicle) in combination with chemotherapeutic drugs [2] | cytotoxicity (cell viability, % vs vehicle) [3] | cytotoxicity (cell viability, % vs vehicle) [4] | cytotoxicity (cell viability, % vs vehicle) [5] | endometriosis cell invasion [6] | IL-6 gene expression (normalized versus vehicle) [7] | dose dependence of effect on cell viability ([8]; endometrial cancer cell lines) | IL-33 gene expression (normalized versus vehicle) [9] | IL-1beta gene expression (normalized versus vehicle) [10] | CXCL8 gene expression (normalized versus vehicle) [11] | STAT-3 gene expression (normalized versus vehicle) [12] | chemotherapeutic drugs cytotoxicity ([13]; endometrial cancer cell lines) | cell viability ([13]; type I cells (cell death) and mixed type endometrial cancer cell lines (autophagy)) | efficacy in reducing cell viability (rank among individual phytocannabinoids) ([8]; endometrial cancer cell lines, order: CBN, followed by CBDV, CBG, THC and CBC) | efficacy of phytocannabinoid combinations in reducing cell viability ([8]; endometrial cancer cells, combinations of phytocannabinoids)
1 | CCCCCc1cc(O)c2c(c1)OC(C)(C)[C@@H]1CCC(C)=C[C@@H]21 [THC, (6aR,10aR)-6,6,9-trimethyl-3-pentyl-6a,7,8,10a-tetrahydrobenzo[c]chromen-1-ol, reference compound] | induced cytotoxicity | induced cytotoxicity | induced cytotoxicity | induced cytotoxicity | induced cytotoxicity | induced cytotoxicity | induced cytotoxicity | induced cytotoxicity | effective in reducing endometriosis cells invasion | reduced | dose dependent effect | – | – | – | – | – | – | – | –
2 | CCCCCc1cc(O)c(C/C=C(\C)CCC=C(C)C)c(O)c1 [CBG, 2-[(2E)-3,7-dimethylocta-2,6-dienyl]-5-pentylbenzene-1,3-diol] | induced cytotoxicity | induced cytotoxicity | induced cytotoxicity | induced cytotoxicity | induced cytotoxicity | induced cytotoxicity | induced cytotoxicity | induced cytotoxicity | effective in reducing endometriosis cells invasion | – | dose dependent effect | reduced | reduced | reduced | – | – | – | – | –
3 | C=C(C)[C@@H]1CCC(C)=C[C@H]1c1c(O)cc(CCCCC)cc1O [CBD, 2-[(1R,6R)-3-methyl-6-prop-1-en-2-ylcyclohex-2-en-1-yl]-5-pentylbenzene-1,3-diol, reference compound] | – | – | – | – | – | – | – | induced cytotoxicity | effective in reducing endometriosis cells invasion | reduced | dose dependent effect | reduced | reduced | reduced | reduced | improves chemotherapeutic drugs cytotoxicity | reduces cell viability | – | –
4 | CCCCCc1cc(O)c2c(c1)OC(C)(C)c1ccc(C)cc1-2 [CBN, 6,6,9-trimethyl-3-pentylbenzo[c]chromen-1-ol] | induced cytotoxicity | induced cytotoxicity | induced cytotoxicity | induced cytotoxicity | induced cytotoxicity | induced cytotoxicity | induced cytotoxicity | induced cytotoxicity | effective in reducing endometriosis cells invasion | – | – | – | – | reduced | – | – | – | highest | amplified the effect of all cannabinoids
5 | CCCCCc1cc(O)c2c(c1)OC(C)(CCC=C(C)C)C=C2 (stereo not drawn) [CBC, 2-methyl-2-(4-methylpent-3-enyl)-7-pentylchromen-5-ol] | induced cytotoxicity | induced cytotoxicity | induced cytotoxicity | induced cytotoxicity | induced cytotoxicity | induced cytotoxicity | induced cytotoxicity | induced cytotoxicity | effective in reducing endometriosis cells invasion | – | dose dependent effect | – | – | – | – | – | – | – | –
6 | C=C(C)[C@@H]1CCC(C)=C[C@H]1c1c(O)cc(CCC)cc1O [CBDV, 2-[(1R,6R)-3-methyl-6-prop-1-en-2-ylcyclohex-2-en-1-yl]-5-propylbenzene-1,3-diol] | induced cytotoxicity | induced cytotoxicity | induced cytotoxicity | induced cytotoxicity | induced cytotoxicity | induced cytotoxicity | induced cytotoxicity | induced cytotoxicity | effective in reducing endometriosis cells invasion | reduced | dose dependent effect | reduced | – | reduced | – | – | – | – | –
